Reference: PubChem BioAssay (NCI)
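96-well plates; 48 h exposure; 5 concentrations. Endpoints by linear interpolation between flanking doses. Not reached: highest tested concentration assigned. GI50 = concentration required for 50% inhibition of growth. TGI: concentration producing complete growth inhibition.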

Columns and labels:
Test in all cases: NCI tumour cell line growth inhibition, 48 h
CCRF-CEM leukemia = tested on: CCRF-CEM leukemia
OVCAR-4 ovarian = tested on: OVCAR-4 ovarian
MDA-MB-231 breast = tested on: MDA-MB-231 breast
HCT-15 colon = tested on: HCT-15 colon
HL-60(TB) leukemia = tested on: HL-60(TB) leukemia
SW-620 colon = tested on: SW-620 colon
SF-295 CNS = tested on: SF-295 CNS
UACC-62 melanoma = tested on: UACC-62 melanoma
ACHN renal = tested on: ACHN renal
SF-268 CNS = tested on: SF-268 CNS
TK-10 renal = tested on: TK-10 renal
SK-OV-3 ovarian = tested on: SK-OV-3 ovarian
UACC-257 melanoma = tested on: UACC-257 melanoma
OVCAR-5 ovarian = tested on: OVCAR-5 ovarian
DU-145 prostate = tested on: DU-145 prostate
HCT-116 colon = tested on: HCT-116 colon
NCI-H23 lung = tested on: NCI-H23 lung
HS 578T breast = tested on: HS 578T breast
786-0 renal = tested on: 786-0 renal
U251 CNS = tested on: U251 CNS
OVCAR-8 ovarian = tested on: OVCAR-8 ovarian
NCI-H522 lung = tested on: NCI-H522 lung
NCI/ADR-RES ovarian = tested on: NCI/ADR-RES ovarian
SNB-75 CNS = tested on: SNB-75 CNS
SN12C renal = tested on: SN12C renal
MALME-3M melanoma = tested on: MALME-3M melanoma
K-562 leukemia = tested on: K-562 leukemia
OVCAR-3 ovarian = tested on: OVCAR-3 ovarian
KM12 colon = tested on: KM12 colon
CAKI-1 renal = tested on: CAKI-1 renal
NCI-H460 lung = tested on: NCI-H460 lung
SR leukemia = tested on: SR leukemia
MDA-MB-435 = tested on: MDA-MB-435
BT-549 breast = tested on: BT-549 breast
SF-539 CNS = tested on: SF-539 CNS
A498 renal = tested on: A498 renal
A549 NSCLC = tested on: A549 NSCLC
HOP-62 NSCLC = tested on: HOP-62 NSCLC
HCC-2998 colon = tested on: HCC-2998 colon
UO-31 renal = tested on: UO-31 renal
RXF 393 renal = tested on: RXF 393 renal
HT29 colon = tested on: HT29 colon
EKVX NSCLC = tested on: EKVX NSCLC
LOX IMVI melanoma = tested on: LOX IMVI melanoma
MCF7 breast = tested on: MCF7 breast
COLO 205 colon = tested on: COLO 205 colon
M14 melanoma = tested on: M14 melanoma
PC-3 prostate = tested on: PC-3 prostate
NCI-H226 lung = tested on: NCI-H226 lung
IGROV1 ovarian = tested on: IGROV1 ovarian
SK-MEL-28 melanoma = tested on: SK-MEL-28 melanoma
SNB-19 CNS = tested on: SNB-19 CNS
SK-MEL-2 melanoma = tested on: SK-MEL-2 melanoma
T-47D breast = tested on: T-47D breast
HOP-92 NSCLC = tested on: HOP-92 NSCLC
RPMI-8226 leukemia = tested on: RPMI-8226 leukemia
MOLT-4 leukemia = tested on: MOLT-4 leukemia

With O=C(c1ccccc1)N(C(=S)NCCc1ccc(Cl)cc1)c1ccc(Cl)cc1 the GI50 (CCRF-CEM leukemia) was 2590 nM, the TGI (CCRF-CEM leukemia) was 10.7 µM and the GI50 (OVCAR-4 ovarian) was 13.7 µM. For the same compound, the TGI (OVCAR-4 ovarian) was 29.3 µM, the GI50 (MDA-MB-231 breast) was 6.95 µM and the TGI (MDA-MB-231 breast) was 20.4 µM. It also gave a GI50 (HCT-15 colon) of 3.57 µM, a TGI (HCT-15 colon) of 14.4 µM and a GI50 (HL-60(TB) leukemia) of 6.77 µM. The TGI (HL-60(TB) leukemia) was over 100 µM, the GI50 (SW-620 colon) was 4.49 µM and the TGI (SW-620 colon) was 16.7 µM. The GI50 (SF-295 CNS) was 14.6 µM, the TGI (SF-295 CNS) was 31.9 µM and the GI50 (UACC-62 melanoma) was 11.4 µM. It also gave a TGI (UACC-62 melanoma) of 23.8 µM, a GI50 (ACHN renal) of 5.68 µM and a TGI (ACHN renal) of 17.4 µM. For the same compound, the GI50 (SF-268 CNS) was 5.67 µM, the TGI (SF-268 CNS) was 18.4 µM and the GI50 (TK-10 renal) was 5.67 µM. It also gave a TGI (TK-10 renal) of 19.7 µM, a GI50 (SK-OV-3 ovarian) of 18.3 µM and a TGI (SK-OV-3 ovarian) of 32.8 µM. It also gave a GI50 (UACC-257 melanoma) of 18.2 µM, a TGI (UACC-257 melanoma) of 34.6 µM and a GI50 (OVCAR-5 ovarian) of 19.6 µM. The TGI (OVCAR-5 ovarian) was 36.4 µM, the GI50 (DU-145 prostate) was 5.22 µM and the TGI (DU-145 prostate) was 16.7 µM. The GI50 (HCT-116 colon) was 7.11 µM, the TGI (HCT-116 colon) was 23.7 µM and the GI50 (NCI-H23 lung) was 13 µM. For the same compound, the TGI (NCI-H23 lung) was 31.4 µM, the GI50 (HS 578T breast) was 13.8 µM and the TGI (HS 578T breast) was over 100 µM. It also gave a GI50 (786-0 renal) of 14.7 µM, a TGI (786-0 renal) of 28.6 µM and a GI50 (U251 CNS) of 4.38 µM. It also gave a TGI (U251 CNS) of 14.9 µM, a GI50 (OVCAR-8 ovarian) of 19.1 µM and a TGI (OVCAR-8 ovarian) of 35.3 µM. The GI50 (NCI-H522 lung) was 8.3 µM, the TGI (NCI-H522 lung) was 22.9 µM and the GI50 (NCI/ADR-RES ovarian) was 16.2 µM. For the same compound, the TGI (NCI/ADR-RES ovarian) was 30.9 µM, the GI50 (SNB-75 CNS) was 13.5 µM and the TGI (SNB-75 CNS) was 27.9 µM. For the same compound, the GI50 (SN12C renal) was 7.45 µM, the TGI (SN12C renal) was 20.7 µM and the GI50 (MALME-3M melanoma) was 11.8 µM. It also gave a TGI (MALME-3M melanoma) of 28.6 µM, a GI50 (K-562 leukemia) of 74.6 µM and a TGI (K-562 leukemia) of over 100 µM. The GI50 (OVCAR-3 ovarian) was 3.75 µM, the TGI (OVCAR-3 ovarian) was 13.3 µM and the GI50 (KM12 colon) was 4.24 µM. It also gave a TGI (KM12 colon) of 15.3 µM, a GI50 (CAKI-1 renal) of 5.48 µM and a TGI (CAKI-1 renal) of 20.9 µM. For the same compound, the GI50 (NCI-H460 lung) was 19.4 µM, the TGI (NCI-H460 lung) was 42.4 µM and the GI50 (SR leukemia) was 5.54 µM. For the same compound, the TGI (SR leukemia) was over 100 µM, the GI50 (MDA-MB-435) was 4.67 µM and the TGI (MDA-MB-435) was 20.4 µM. It also gave a GI50 (BT-549 breast) of 11.8 µM, a TGI (BT-549 breast) of 25.8 µM and a GI50 (SF-539 CNS) of 5.93 µM. It also gave a TGI (SF-539 CNS) of 19.1 µM, a GI50 (A498 renal) of 16.3 µM and a TGI (A498 renal) of 30.7 µM. It also gave a GI50 (A549 NSCLC) of 19.4 µM, a TGI (A549 NSCLC) of 49.9 µM and a GI50 (HOP-62 NSCLC) of 20.2 µM. For the same compound, the TGI (HOP-62 NSCLC) was 37.9 µM, the GI50 (HCC-2998 colon) was 8.54 µM and the TGI (HCC-2998 colon) was 22.6 µM. The GI50 (UO-31 renal) was 2610 nM, the TGI (UO-31 renal) was 8.85 µM and the GI50 (RXF 393 renal) was 12.8 µM. For the same compound, the TGI (RXF 393 renal) was 28.6 µM, the GI50 (HT29 colon) was 5.3 µM and the TGI (HT29 colon) was 58.4 µM. The GI50 (EKVX NSCLC) was 17.4 µM, the TGI (EKVX NSCLC) was 38.8 µM and the GI50 (LOX IMVI melanoma) was 2400 nM. The TGI (LOX IMVI melanoma) was 5.3 µM, the GI50 (MCF7 breast) was 3.58 µM and the TGI (MCF7 breast) was 19.4 µM. It also gave a GI50 (COLO 205 colon) of 6.83 µM, a TGI (COLO 205 colon) of 23.1 µM and a GI50 (M14 melanoma) of 8.42 µM. The TGI (M14 melanoma) was 25 µM, the GI50 (PC-3 prostate) was 6.94 µM and the TGI (PC-3 prostate) was 26.2 µM. For the same compound, the GI50 (NCI-H226 lung) was 16.7 µM, the TGI (NCI-H226 lung) was 39.4 µM and the GI50 (IGROV1 ovarian) was 3.88 µM. The TGI (IGROV1 ovarian) was 16.2 µM, the GI50 (SK-MEL-28 melanoma) was 12.7 µM and the TGI (SK-MEL-28 melanoma) was 27 µM. It also gave a GI50 (SNB-19 CNS) of 15.9 µM, a TGI (SNB-19 CNS) of 30.1 µM and a GI50 (SK-MEL-2 melanoma) of 20.2 µM. It also gave a TGI (SK-MEL-2 melanoma) of 36.4 µM, a GI50 (T-47D breast) of 6.24 µM and a TGI (T-47D breast) of 25.3 µM. The GI50 (HOP-92 NSCLC) was 7.3 µM, the TGI (HOP-92 NSCLC) was 21 µM and the GI50 (RPMI-8226 leukemia) was 2080 nM. For the same compound, the TGI (RPMI-8226 leukemia) was 5.66 µM, the GI50 (MOLT-4 leukemia) was 3.14 µM and the TGI (MOLT-4 leukemia) was over 100 µM.
